According to patent US6380277B1, “Iodonium salt photoinitiators containing urethane groups for cationic curing” (Goldschmidt AG, priority 1999, dated 2002):

Legend:
Solubility in toluene = type: physicochemical
Text: The solubility of the iodonium salts of the invention was compared with the solubility of the hydroxyl-bearing iodonium salts.

[1] = Tests relating to cationic photopolymerization (UV curing of coating)
Text: In order to examine the activity of the compounds shown in Examples 1-4 in cationic photopolymerization, 98 parts of a cycloaliphatic epoxysilane having an epoxy value of 3.5% and a viscosity of 125 mPas were mixed with 2 parts of each photoinitiator.
The mixtures were then applied to a standard OPP film (30 μm) using a pilot-scale coating machine equipped with a five-roll applicator unit. The application weight was 0.5-1 g/m^2. The coatings were subsequently cured with a microwave-excited UV lamp (Fusion, 120 W/cm) at a web speed of 20 m/min.
Directly following passage under the UV lamp, it was determined whether the coatings have cured to a film which is no longer tacky.

[2] = Miscibility with organopolysiloxanes containing epoxy groups; type: physicochemical
[3] = Hydrolytic stability: time to formation of visible precipitates or crystals; type: physicochemical; conditions: time to formation of visible precipitates or crystals of hydrolytic cleavage product formula (XI)
Text: The improved hydrolytic stability of the iodonium salts of the invention containing urethane groups may best be shown in comparison with the iodonium salt with the formula (XVI), containing Si—O—C bonds (see German Patent Application 19901531.7). [drawing 19]
Indicated is the time to the formation of visible precipitates or crystals of the hydrolytic cleavage product with the formula (XI): […]

CCCCCCCCCCCCC(COc1ccc([I+]c2ccccc2)cc1)OC(=O)Nc1cccc(C(F)(F)F)c1 (stereo not drawn) [Formula (VII)]
solubility in toluol (Solubility in toluene): unrestricted solubility

CCCCCCCCCCCCC(O)COc1ccc([I+]c2ccccc2)cc1 (stereo not drawn) [Formula (VIII)]
solubility in toluol (Solubility in toluene): insoluble
Appearance of the mixture ([1]; 2 parts photoinitiator in 98 parts cycloaliphatic epoxysilane (epoxy value 3.5%, 125 mPas)): cloudy,
Curing after the UV lamp ([1]; 2 parts photoinitiator, 0.5-1 g/m^2 on OPP film, UV lamp 120 W/cm, web speed 20 m/min, judged directly after lamp): unsatisfactory;
miscibility with organopolysiloxanes containing epoxy groups [2]: no miscibility

CCCCCCCCCCCCC(O)COc1ccc([I+]c2ccccc2)cc1 (stereo not drawn) [Formula (XI)]
Solubility in toluene (Solubility in toluene): insoluble
melting point: 91 °C

CCCCCCCCCCCCC(COc1ccc([I+]c2ccccc2)cc1)O[Si](C)(C)C (stereo not drawn) [Formula (XVI)]
Stability in 1-butanol (50% w/w) ([3]; 50% w/w in 1-butanol): 2 days
Stability in toluene (50% w/w) ([3]; 50% w/w in toluene): 21 days
